Measurements from patent publication US8563254B2, “Biomarkers of tumor pharmacodynamic response” (Novartis AG, priority 2009, dated 2013).

Tests used:
GTL-16 cells = assay: Western blot of total protein lysates, GTL-16; type: cell-based, human; conditions: GTL-16, 0.3 μM, 16 hr and 24 hr
Protocol: Total protein lysates were prepared from the GTL-16 and A375 cells with RIPA lysis buffer (Upstate, Millipore Corporation, Charlottesville, Va., USA). Cells were washed with PBS and 500 ul of ice-cold RIPA buffer, containing protease inhibitor cocktail tablet (Roche Diagnostic GmbH, Mannheim, Germany) and phosphatase inhibitors (Sigma-Aldrich, Inc., St. Louis, Mo., USA), was added to each plate on ice. After 15 min the cells were scrapped from the plate surface and spun at 16000 RPM for 10 min at 4° C. The supernatant was collected and frozen at −80° C. Nuclear protein fractions were prepared by the NE-PER nuclear and cytoplasmic extraction kit (Pierce Biotechnology, Rockford, Ill., USA). Proteins were quantified by bicinchoninic acid assay (Pierce Biotechnology, Rockford, Ill., USA) for Western blotting. Primary antibodies specific for NFκB p65, cREL, p-ERK1/2, p-c-jun, ERK1 and Jun were purchased from Santa Cruz Biotechnology (Santa Cruz Biotechnology, Inc., Santa Cruz, Calif., USA) with the exception of Hsp70 and TBP (nuclear loading control), which were obtained from StressGen (StressGen, Assay Designs, Inc., Aim Arbor, Mich., USA) and Abcam (Abcam Inc., Cambridge, Mass., USA), respectively. 4-12% Bis-Tris SDS-PAGE, denaturing, non-reducing gels were loaded with 30 μg of total protein, a SeeBlue2Plus pre-stained protein standard and MES SDS running buffer were utilized for the electrophoretic separation in a XCell SureLock™ Mini-Cell (Invitrogen Corporation, Inc., Carlsbad, Calif., USA). An iBlot™ gel transfer PVDF stack with iBlot™ gel transfer system (Invitrogen) was used. An Odyssey Infrared Imaging System was used to detect the immunocomplex (Li-COR Biotechnologies, Inc., Lincoln, Nebr., USA). Li-COR blocking buffer was used to limit cross-reactivity. Membranes were incubated at 4° C. overnight in the primary antibody diluted in blocking buffer, followed by 1 hr room temperature incubation with a secondary IgG antibody (Li-COR IR dye, Li-COR).

[1] = test system: GTL-16 tumor-bearing mice; assay: Hsp70 expression in GTL-16 xenograft tumors (Western blot, IHC); type: in vivo; conditions: GTL-16 tumors, single 75 mg/kg dose i.v.
Protocol: The in vivo study was carried out in strict accordance with Swiss law for animal protection and was approved by the Swiss Cantonal Veterinary Office of Basel-Stadt. GTL-16 (4×10^6) and A375 cells (5×10^6) were inoculated subcutaneously in the right flank in 200 μl Hanks' balanced salt solution (HBSS) or PBS, respectively. Invasive procedures were performed under Forene anesthesia. All experiments were performed in female Harlan HsdNpa: Athymic Nude-nu mice (Laboratory Animal Services, Novartis Pharma AG, Basel). The animals were kept under optimized hygienic conditions with 12 hr dark, 12 hr light conditions. The animals were fed food and water ad libitum. A single 75 mg/kg and 50 mg/kg dose of Hsp90 inhibitor, NVP-AUY922 was administered to the GTL-16 and A375 tumor-bearing mice, when tumors had reached a mean volume of 200 mm^3-500 mm^3 in size. Mice in the control group were injected with the vehicle (D5W). Serum was isolated and tumors dissected over the time course 0-168 hr. Tumors were cut in two halves. One half was paraffin embedded and the other snap frozen, and stored at −80° C.
Total protein lysates were prepared from the GTL-16 and A375 cells with RIPA lysis buffer (Upstate, Millipore Corporation, Charlottesville, Va., USA). […] Proteins were quantified by bicinchoninic acid assay (Pierce Biotechnology, Rockford, Ill., USA) for Western blotting. […]

A375 cells = assay: Cell viability by CellTiter-Glo, A375; type: cell-based, human; conditions: A375, 0.3 μM, 72 hr treatment time
Protocol: Cell Viability was measured by CellTiter-Glo assay (Promega U.S., Madison, Wis., USA). GTL-16 and A375 cells were grown in 6-well poly-D-lysine coated plates (BD Biosciences). Cells were treated with NVP-AUY922. Cell viability was measured 16, 24, 48 and 72 hr post-treatment with Hsp90 inhibitor. Briefly supernatants were removed and cells were washed with 3 ml of PBS, pH 7.4. 1 ml of a two component CellTiter-Glo reagent was added to each well and the plates were shaken vigorously for 2 min, followed by 10 min incubation at room temperature in the dark. Luminescent signal intensity was recorded with an integration time set between 0.25 and 1 s/well.

CCNC(=O)c1noc(-c2cc(C(C)C)c(O)cc2O)c1-c1ccc(CN2CCOCC2)cc1 [NVP-AUY922, 5-(2,4-Dihydroxy-5-isopropyl-phenyl)-4-(4-morhpolin-4-ylmethyl-phenyl)-isoxazole-3-carboxylic acid ethylamide]
Hsp70 induction (GTL-16 cells): induction was observed
levels of phospho-ERK1/2 and phospho-c-Jun (GTL-16 cells): significantly diminished
total ERK and c-Jun levels (GTL-16 cells): unaffected
total cellular levels of NFκB p65 and c-REL (GTL-16 cells): essentially unchanged
earliest time post-treatment at which Hsp70 is induced in tumor [1]: 6 h
stable Hsp70 induction in tumor up to [1]: 48 h
cell viability over time (A375 cells): steadily declines
